Measurements reported in US20070244079A1, “PREVENTIVE/REMEDY FOR ALLERGIC DISEASES” (Ajinomoto Co., Inc., priority 2004, published 2007).

Key:
[1] = test system: ovalbumin-induced asthma model mice; assay: Ovalbumin-induced asthma model mice: eosinophil count in BAL Fluid; assay type: in vivo, Balb/c mice
[2] = test system: ovalbumin-induced asthma model mice; assay: Airway hypersensitivity test (methacholine, whole body plethysmography) in ovalbumin-induced asthma model mice; assay type: in vivo, Balb/c mice; details: 3 mM aqueous solution, free water drinking day 0 to day 21; methacholine inhalation; asthma model mice 6.61
Protocol: After elapse of 24 hours following a third antigen exposure, the animals were allowed to inhale methacholine, which is an airway constricting substance, and an airway hypersensitivity test of the ovalbumin-induced asthma mice was performed using a whole body plethysmography. As an index of airway resistance, the Penh value was used. In the ovalbumin-induced asthma model mice, the Penh value was 6.61; in the group receiving a 3 mM aqueous solution of valine administered by the free water drinking method from day 0 to day 21, the Penh value decreased to 3.77.

[3] = test system: ovalbumin-induced pulmonary fibrosis model mice; assay: Ovalbumin-induced pulmonary fibrosis model mice: hydroxyproline content in lung tissue; assay type: in vivo, Balb/c mice; details: valine 15 g/L, dexamethasone 10 mg %, inhalation 40 minutes per day, day 21 to day 42; no treatment 28.7%
Protocol: Ovalbumin-induced pulmonary fibrosis model mice were induced by a conventional method using Balb/c mice, and the pulmonary fibrosis suppressive effect of coadministration of L-valine (free form) and dexamethasone by inhalation was investigated. 24 hours after antigen exposure on day 42, the lungs were extirpated from the pulmonary fibrosis model mice, and the hydroxyproline content in lung tissue was measured as an index of the degree of fibrosis. Valine (15 g/L) and dexamethasone (10 mg %) were aerosolized with a nebulizer and coadministered by inhalation (40 minutes per day) on consecutive days from day 21 to day 42. The results are expressed as increments (%) of the hydroxyproline content in each test group compared to the hydroxyproline content in the lung tissues from normal mice.

[4] = test system: ovalbumin-induced asthma model mice; assay: Cytokine concentrations in BAL Fluid (ELISA) of ovalbumin-induced asthma model mice; assay type: in vivo, Balb/c mice; details: 0.6 mM aqueous solution, free water drinking day 0 to day 21
Protocol: After a 0.6 mM aqueous solution of valine was prepared, it was administered by the free water drinking method from day 0 to day 21. The IFN-γ/IL4 ratio increased from 5.8 for the control group to 8.0 for the valine administration group.

[5] = test system: ovalbumin-induced asthma model mice; assay: Lung tissue pathology (H/E staining), immune cell infiltration in ovalbumin-induced asthma model mice; assay type: in vivo, Balb/c mice; details: valine 3 mM or ornithine hydrochloride 15 mM, free water drinking day 0 to day 21
Protocol: After elapse of 24 hours following a third antigen exposure, the lungs were extirpated from the mice and fixed in 10% formalin buffer solution, paraffin sections were prepared, and H/E staining was performed. […] Note that FIG. 7(a) is a lung tissue image of a normal mouse without asthma induction.

[6] = test system: ovalbumin-induced pulmonary fibrosis model mice; assay: Ovalbumin-induced pulmonary fibrosis model mice: airway resistance (Penh) after methacholine; assay type: in vivo, Balb/c mice; details: valine 15 g/L, dexamethasone 10 mg %, inhalation 40 minutes per day, day 21 to day 42, no treatment 4.0
Protocol: Ovalbumin-induced pulmonary fibrosis model mice were induced by a conventional method using Balb/c mice, and the lung function reduction suppressive effect of coadministration of L-valine (free form) and dexamethasone by inhalation was investigated. 24 hours after antigen exposure on day 42, the pulmonary fibrosis model mice were allowed to inhale methacholine, which is a bronchial constriction inducer, and airway resistance (Penh) was measured using a Buxco whole body plethysmography. Valine (15 g/L) and dexamethasone (10 mg %) were aerosolized with a nebulizer and coadministered by inhalation (40 minutes per day) on consecutive days from day 21 to day 42.

[7] = test system: Ovalbumin-immunized Balb/c mice; assay: Cytokine productivity of isolated immune cells (lung macrophages co-cultured with splenocytes) from ovalbumin-immunized mice given valine; assay type: in vivo; details: valine 3 mM free water drinking day 0 to day 11, co-cultured with splenocytes 48 hours, ELISA
Protocol: Ovalbumin-immunized Balb/c mice were given L-valine (free form), and changes in the cytokine productivity of isolated immune cells were examined, whereby the effect on the Th1/Th2 balance in a living organism's immune system was investigated. After a 3 mM aqueous solution of valine was prepared, it was administered by the free water drinking method from day 0 to day 11. […] On day 11, macrophages were isolated from the lungs and cultured in the presence of 1 mg/mL ovalbumin overnight, after which they were further co-cultured with splenocytes isolated from an ovalbumin-immunized mouse for 48 hours. After the cultivation, cytokines in the culture supernatant were measured by an ELISA method. […] With valine administration, an increase in the Th1 cytokine content and a reduction in the Th2 cytokine content were observed.

[8] = 0.6 to 15 mM aqueous solutions, free water drinking day 0 to day 21, 1st of 3 values (respectively), control 33
[9] = 0.6 to 15 mM aqueous solutions, free water drinking day 0 to day 21, 2nd of 3 values (respectively), control 33
[10] = 0.6 to 15 mM aqueous solutions, free water drinking day 0 to day 21, 3rd of 3 values (respectively), control 33

NCC(=O)O [glycine]
eosinophil count in the BAL Fluid [1, 8]: 32000 µL⁻¹
eosinophil count in the BAL Fluid [1, 9]: 27000 µL⁻¹
eosinophil count in the BAL Fluid [1, 10]: 28000 µL⁻¹

CC(C)[C@H](N)C(=O)O [valine, L-valine]
Penh value (index of airway resistance) [2]: 3.77
increment of hydroxyproline content in lung tissue compared to normal mice [3]: 31%
IL-4 in BAL Fluid ([4]; ELISA, control 69.1): 120.7 pg/mL
IFN-γ in BAL Fluid ([4]; ELISA, control 403.8): 970.4 pg/mL
IFN-γ/IL-4 ratio in BAL Fluid ([4]; control 5.8): 8.0
effect on eosinophil count in the BAL Fluid compared to the control group ([1]; 15 mM, free water drinking started at first suction exposure (day 12)): no significant effect
eosinophil count in the BAL Fluid ([1]; 0.12 to 15 mM aqueous solutions, free water drinking day 0 to day 21, 1st of 4 values (respectively), control 36): 26000 µL⁻¹
eosinophil count in the BAL Fluid ([1]; 0.12 to 15 mM aqueous solutions, free water drinking day 0 to day 21, 2nd of 4 values (respectively), control 36): 23000 µL⁻¹
eosinophil count in the BAL Fluid ([1]; 0.12 to 15 mM aqueous solutions, free water drinking day 0 to day 21, 3rd of 4 values (respectively), control 36): 17000 µL⁻¹
eosinophil count in the BAL Fluid ([1]; 0.12 to 15 mM aqueous solutions, free water drinking day 0 to day 21, 4th of 4 values (respectively), control 36): 28000 µL⁻¹
eosinophil count in the BAL Fluid ([1]; 0.6, 3, or 15 g/L aqueous solution, oral by sonde 100 μL/time/animal twice a day, day 0 to day 21): decreased with dependence on the dose
eosinophil count in the BAL Fluid ([1]; 0.6 or 15 g/L aqueous solution, inhalation (nebulizer) once daily 30 minutes, 5 days/week, day 11 to day 21): decreased with dependence on the dose
lung tissue symptoms (immune cell infiltration, hypertrophy of bronchial epithelial cells, mucosa-producing cells, bronchial stenosis) [5]: all of the above-described symptoms were potently suppressed, and no bronchial stenosis was observed
Penh value (airway resistance) [6]: 4.0
IL-4 (pg/mL) Mean, culture supernatant [7]: 9.2 pg/mL
IFN-γ (pg/mL) Mean, culture supernatant ([7]; control 147.0): 341.1 pg/mL

N=C(N)NCCC[C@H](N)C(=O)O [arginine, L-arginine]
eosinophil count in the BAL Fluid ([1]; 3 to 45 mM aqueous solutions, free water drinking day 0 to day 21, 1st of 3 values (respectively), control 45): 26000 µL⁻¹
eosinophil count in the BAL Fluid ([1]; 3 to 45 mM aqueous solutions, free water drinking day 0 to day 21, 2nd of 3 values (respectively), control 45): 25000 µL⁻¹
eosinophil count in the BAL Fluid ([1]; 3 to 45 mM aqueous solutions, free water drinking day 0 to day 21, 3rd of 3 values (respectively), control 45): 19000 µL⁻¹

CC(C)C[C@H](N)C(=O)O [leucine, L-leucine]
eosinophil count in the BAL Fluid ([1]; 0.9 mM aqueous solution, free water drinking day 0 to day 21, control 20): 7000 µL⁻¹

N[C@@H](CO)C(=O)O [serine]
eosinophil count in the BAL Fluid [1, 8]: 29000 µL⁻¹
eosinophil count in the BAL Fluid [1, 9]: 24000 µL⁻¹
eosinophil count in the BAL Fluid [1, 10]: 22000 µL⁻¹

C[C@@H]1C[C@H]2[C@@H]3CCC4=CC(=O)C=C[C@]4(C)[C@@]3(F)[C@@H](O)C[C@]2(C)[C@@]1(O)C(=O)CO [dexamethasone, reference compound]
increment of hydroxyproline content in lung tissue compared to normal mice [3]: 15.4%
Penh value (airway resistance) [6]: 4.1

CC[C@H](C)[C@H](N)C(=O)O [isoleucine, L-isoleucine]
eosinophil count in the BAL Fluid ([1]; 0.45 mM aqueous solution, free water drinking day 0 to day 21, control 20): 12000 µL⁻¹
